Values after ≈ are worked out from the molar mass of the structure shown. Read-outs that look alike come from different tables or passages of the source.

For data set [1], the system named is HT22 cells (mouse hippocampal neuroblastoma cell line). The arrangement: method as in doi:10.1007/s11101-018-9561-5, PMID 25794817. Particulars: 100 µM, 24 h; cited from earlier work.
For data set [2], the system named is multidrug-resistant COLO 320 cells. In words: Drug combination assay with doxorubicin (Chou-Talalay, MTT). It counts as cell-based, human. Conditions: for CI at ED50 (combination index): combination with doxorubicin, COLO 320, 72 h, Chou-Talalay; for Interaction: interaction with doxorubicin in COLO 320, class from CI. Here is the method:
One promising approach involves the discovery of new bioactive natural products. To explore this, a chemosensitivity assay was conducted to examine the in vitro interactions between the isolated compounds and the antineoplastic agent doxorubicin, a substrate of P-glycoprotein (P-gp). A combination chemotherapy model was applied using human COLO 320 colon carcinoma cells. The combination index (CI), calculated according to the Chou–Talalay method, was used to evaluate drug–drug interactions, classifying them as synergistic (CI < 1), additive (CI = 1), or antagonistic (CI > 1) (Table 4).
The multidrug-resistant COLO 320 cell line was used to perform the drug combination assay. Doxorubicin (2 mg/mL, Teva Pharmaceuticals, Budapest, Hungary) was serially diluted horizontally, starting with 8.6 µM. The resistance modifier was subsequently diluted vertically, with the starting concentration determined based on the IC50 value. Doxorubicin was diluted horizontally in 100 µL, while the resistance modifiers were diluted vertically in 50 µL in the microtiter plate. The compounds and doxorubicin were prepared as separate dilutions. The cells were seeded at a density of 6 × 10^3 cells per well into 100 µL of medium and incubated for 24 h at 37 °C in a 5% CO2 atmosphere prior to treatment. After this period, the culture medium was removed, and 50 µL of fresh medium was added to each well, followed by the addition of 50 µL of the diluted compounds, resulting in a final volume of 200 µL per well. The plates were then incubated for 72 h at 37 °C under 5% CO2. The cell viability was assessed at the end of incubation using the MTT assay, as described previously. Drug interactions were analyzed using CompuSyn software (Version 1.00).
The dose–response curves for individual agents and their combinations were fitted to a linear model based on the median-effect equation to calculate the median effective dose (IC50) and the slope (m). The quality of the fit was evaluated using the linear correlation coefficient (r), and only data with r > 0.90 are reported. The extent of drug interaction was quantified using the combination index (CI), where CI ≈ 1 indicated an additive effect, CI < 1 signified synergy, and CI > 1 denoted antagonism.

For data set [3], the system named is COLO 320/MDR-LRP multidrug-resistant human colonic adenocarcinoma cells. In words: MTT antiproliferative assay, COLO 320. Particulars: COLO 320 (multidrug-resistant), read-out: IC50 (µM) ± SD COLO 320. It counts as cell-based. The protocol:
(§1) The antiproliferative effects of the isolated phenanthrenes (compounds 1–19) were evaluated using human cancer cell lines, including doxorubicin-sensitive colonic adenocarcinoma COLO 205 and multidrug-resistant colonic adenocarcinoma COLO 320/MDR-LRP (which expresses P-glycoprotein [MDR1] and LRP), as well as non-cancerous human lung fibroblast CCD-19Lu cells. CCD-19Lu was chosen because it is a well-characterized, non-tumorigenic cell line commonly used to assess general cytotoxicity. Moreover, data from the literature support the use of lung fibroblast cell lines—including CCD-19Lu—as normal controls in studies involving colon cancer cells such as Colo 205 and Colo 320 [33]. The thiazolyl blue tetrazolium bromide (MTT) assay was employed to determine the concentration of each compound required to inhibit 50% of the cell viability (IC50), as summarized in Table 3.
(§2) The human colon adenocarcinoma cells—COLO 205 (CCL-222, doxorubicin-sensitive) and COLO 320/MDR-LRP (ATCC-CCL-220.1, multidrug-resistant, expressing P-gp)—were cultured in RPMI 1640 medium supplemented with 10% heat-inactivated fetal bovine serum, 2 mM of L-glutamine, 1 mM of sodium pyruvate, and 100 mM of HEPES. The non-cancerous human lung fibroblast cell line CCD-19Lu was maintained in Eagle’s Minimal Essential Medium (EMEM; containing 4.5 g/L of glucose) supplemented with a non-essential amino acid mixture, selected vitamins, and 10% heat-inactivated fetal bovine serum. All of the cell lines were detached using 0.25% trypsin and 0.02% EDTA for 5 min at 37 °C. The cell lines were obtained from LGC Promochem (Teddington, England).
(§3) Human colonic adenocarcinoma cell lines—doxorubicin-sensitive COLO 205 and multidrug-resistant COLO 320—as well as the non-cancerous human lung fibroblast cell line CCD-19Lu were used to evaluate the effects of the test compounds on cell proliferation. The assays were conducted in 96-well flat-bottomed microtiter plates. Stock solutions of the compounds were prepared in dimethyl sulfoxide (DMSO), with the final DMSO concentration kept below 1% in all samples. The compounds were diluted in 100 µL of the appropriate culture medium. Adherent cells were cultured in EMEM supplemented with 10% heat-inactivated fetal bovine serum and seeded into 96-well plates at a density of 6 × 10^3 cells per 100 µL per well. The cells were allowed to adhere for 24 h at 37 °C in a humidified incubator with 5% CO2. After incubation, the medium was removed and replaced with 100 µL of fresh medium. Serial dilutions of the compounds were prepared in separate plates and added to the cells, starting from a concentration of 100 µM with twofold serial dilutions (final concentration range: 100–0.19 µM). The cells were then incubated for 72 h at 37 °C. At the end of the incubation period, 20 µL of thiazolyl blue tetrazolium bromide (MTT) solution (5 mg/mL, Sigma) was added to each well. After 4 h of incubation at 37 °C, 100 µL of 10% sodium dodecyl sulfate (SDS) in 0.01 M HCl was added to solubilize the formazan crystals, and the plates were incubated overnight at 37 °C. Cell viability was assessed by measuring the optical density (OD) at 540/630 nm using a Multiscan EX ELISA reader (Thermo Labsystems, Cheshire, WA, USA).
(§4) The inhibitory concentration that reduced cell growth by 50% (IC50) was determined from the dose–response curves. The percent inhibition was calculated using the formula100 − ((OD_sample − OD_medium control)/(OD_cell control − OD_medium control)) × 100
(§5) Dose–response curves were generated by plotting the percent inhibition against the logarithm of the compound concentrations and fitted using Prism5 software (Version 6, GraphPad Software Inc., San Diego, CA, USA). The IC50 values were derived from four independent experiments conducted in parallel for each cell line and are reported as the mean values.
Background: Tetrazolium assays rely on reduction of a dye to a coloured formazan, in cell work by metabolically active cells.

Data set [4] has as its system CCD-19Lu non-cancerous human lung fibroblast cells. In words: MTT antiproliferative assay, CCD-19Lu. It counts as cell-based. Particulars: 72 h, CCD-19Lu non-tumorigenic fibroblasts, read-out: IC50 (µM) ± SD CCD-19Lu. Here is the method:
as §1, §2, §3, §4, §5

Data set [5] deals with COLO 205 (doxorubicin-sensitive) human colonic adenocarcinoma cells. In words: MTT antiproliferative assay, COLO 205. Conditions: read-out: IC50 (µM) ± SD COLO 205. The format is cell-based. Here is the method:
as §1, §2, §3, §4, §5

Another data set has as its system HeLa cells. The arrangement: method as in PMID 33348712. Particulars: cited from earlier work.
Data set [6] deals with NCI 90 KB (human epidermoid nasopharynx carcinoma) cells. The arrangement: method as in PMID 830696. Particulars: NCI 90 KB cells; cited from earlier work.
In another data set the test system is HepG-2. The arrangement: method as in PMID 26072042. Conditions: cited from earlier work.
The test system of the next data set is SMMC-7721. The arrangement: method as in PMID 26072042. Particulars: cited from earlier work.
The subject of a further data set is MCF-7. The arrangement: method as in PMID 26072042. Conditions: cited from earlier work.
The test system of a further data set is HepG2 cells. Conditions: cited from earlier work.
On the set-up of data set [7]: method as in PMID 31125040. Conditions: cited from earlier work.

Usually IC50 stands for the midpoint of a concentration-inhibition curve. As for `C=Cc1c(C)c(O)cc2c1ccc1c(C)c(O)ccc12` [Compound 8, dehydrojuncuenin B], in [1], the “decrease in MTT reduction” value is on record as 8.4%. In [2], the “CI at ED50 (combination index)” value turned out to be 2.126. Further, in data set [2], the Interaction result was “antagonism (1.45 < CI < 3.3, antagonism)”. Besides, the 50% inhibitory concentration (IC50) in data set [3] (Homo sapiens, COLO 320, 72 h) worked out at 17.9 ± 1.59 µM; in data set [4], 22.8 ± 0.55 µM; in data set [5] (Homo sapiens, COLO 205, 72 h), 20.7 ± 0.47 µM.
With `C=Cc1cc(O)cc2c1-c1ccc(O)c(C)c1CC2` [Compound 10, effusol], in data set [1], the “decrease in MTT reduction” value is on record as 9.9%. Besides, the IC50 was 2.3 µM in the data set on HeLa cells; 49.7 ± 2.12 µM in [3] (72 h); 49.7 µM in data set [3] (Homo sapiens, COLO 320, 72 h); 96 ± 2.66 µM in data set [4]; 52.7 ± 1.85 µM in data set [5] (72 h); 52.7 µM in [5] (Homo sapiens, COLO 205, 72 h). In data set [2], the “CI at ED50 (combination index)” value is recorded as 1.123. For the same molecule, in data set [2], the Interaction entry is “slight antagonism”.
Regarding `C=Cc1c(C)c(O)cc2c1-c1ccc(O)c(C)c1CC2` [Compound 11, juncusol], the “decrease in MTT reduction” value in [1] was 25.4%. The IC50 with HeLa cells is 0.5 µM; in data set [3] (Homo sapiens, COLO 320, 72 h), 36.2 ± 3.81 µM; in data set [4], 44.4 ± 2.82 µM; in data set [5] (Homo sapiens, COLO 205, 72 h) it was 31.9 ± 1.91 µM. Also, the “CI at ED50 (combination index)” value in [2] is 0.582. For the same molecule, in [2], the Interaction result is reported as “synergism (0.3 < CI < 0.7, synergism)”. Moreover, the ED50 in [6] was 0.3 µg/mL (≈ 1.13 µM).
Consider `C=Cc1cc(O)cc2c1-c1cc(-c3c(O)cc(C=C)c4c3ccc3c(C)c(O)ccc34)c(O)c(C)c1CC2` [effususin B], for which the IC50 with HepG-2 is 12.9 µM; in the data set with SMMC-7721 it was 13.6 µM; in the data set on MCF-7, 12.5 µM.
As to `C=CC1=C(C)C(=O)C=C2c3ccc(O)c(C)c3CCC21O` (centres unmarked) [juncuenin D, reference compound], in [1], the “decrease in MTT reduction” value was 23.7%.
Take juncunol: the apoptotic cells entry in the data set with HepG2 cells (HepG2, concentration-dependent (IC50 value ± 25%)) is “increase in the number of apoptotic cells”. In addition, in the data set on HepG2 cells (HepG2), the cell cycle arrest result is listed as “G0/G1 phase” and the Δψm entry was “decrease in Δψm”. The IC50 in the data set with HepG2 cells (HepG2 cells) was 18 µM. In addition, in data set [7], the hemolytic properties result was “no hemolytic properties”.

Values taken from article PMC12386809, “Phenanthrene Monomers and Dimers from Juncus tenuis with Antiproliferative Activity and Synergistic Effect with Doxorubicin Against Human Colon Cancer Cell Lines” (International Journal of Molecular Sciences, 2025).
